Assays:
GST-ALK5 = target: T1, GST-ALK5 (Homo sapiens, UniProt P36897); assay: In-vitro (enzyme) kinase assay, 384-well flashplate (Example 36); type: biochemical; conditions: GST-ALK5, GST-SMAD2 substrate, 3 mM ATP, 30° C., 45 min; read-out: TβR activity (Example 36)
T1 sequence (P36897 34-503): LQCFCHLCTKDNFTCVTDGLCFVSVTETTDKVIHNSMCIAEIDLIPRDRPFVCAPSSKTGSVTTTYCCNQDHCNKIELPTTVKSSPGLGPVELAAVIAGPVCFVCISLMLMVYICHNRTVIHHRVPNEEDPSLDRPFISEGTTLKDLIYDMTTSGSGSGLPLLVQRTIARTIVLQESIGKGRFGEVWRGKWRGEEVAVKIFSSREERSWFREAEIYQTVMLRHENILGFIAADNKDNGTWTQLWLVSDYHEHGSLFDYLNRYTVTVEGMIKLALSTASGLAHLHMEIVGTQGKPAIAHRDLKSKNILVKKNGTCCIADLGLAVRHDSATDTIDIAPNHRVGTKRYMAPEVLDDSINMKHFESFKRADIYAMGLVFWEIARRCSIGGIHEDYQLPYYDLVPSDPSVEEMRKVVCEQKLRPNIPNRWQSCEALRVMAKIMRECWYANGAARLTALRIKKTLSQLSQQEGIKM
Method in brief: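 Radiometric flashplate assay: 31.2 nM GST-ALK5 phosphorylating 439 nM GST-SMAD2 with 3 mM ATP plus ³³P-ATP, in HEPES/MgCl2/MnCl2/DTT/BSA buffer pH 7.4, 45 min at 30 °C, 5-10 compound concentrations. EDTA stop, filtration and washing, then radioactivity counted; IC50 derived from the curve.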

[1] = test system: TGF-beta-induced phosphorylation of Smad2 and Smad3 in Mv1-Lu cells; assay: Inhibition of Smad2/3 phosphorylation in Mv1Lu cells (Example 35A); type: cell-based, mink Mustela vison; conditions: Neogale vison, Mv1-Lu cells, TGF-beta 1 5 ng/ml, phospho-Smad2/3 ELISA, read-out: TβR activity (Example 35A)
Method in brief: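 Serum-starved (16-20 h) Mv1-Lu mink lung epithelial cells were pre-incubated 1.5 h with compound dilutions (0.2% DMSO), then stimulated 1 h with 5 ng/ml TGF-beta 1. Phospho-Smad2 (Ser465/467)/Smad3 (Ser423/425) in lysates was measured by ELISA. IC50 came from dose-response fits between stimulated and unstimulated controls.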

IC50 (GST-ALK5) | IC50 [1] | Structure (SMILES)
< 100 nM | < 100 nM | CN1CCN(c2ccc(-c3cncc(-c4cc(-c5cc(Cl)ccc5F)nc5ncccc45)c3)nn2)CC1 [compound 113, 2-(5-Chloro-2-fluoro-phenyl)-4-{5-[6-(4-methyl-piperazin-1-yl)-pyridazin-3-yl]-pyridin-3-yl}-[1,8]naphthyridine]
< 100 nM | < 100 nM | CN1CCN(c2ccc(-c3cncc(-c4cc(-c5cc(F)ccc5F)nc5ncccc45)c3)cc2)CC1 [compound 114, 2-(2,5-Difluoro-phenyl)-4-{5-[4-(4-methyl-piperazin-1-yl)-phenyl]-pyridin-3-yl}-[1,8]naphthyridine]
< 100 nM | 100 to 1000 nM | CC(=O)Nc1cccc(-c2cncc(-c3cc(-c4cc(Cl)ccc4F)nc4ncccc34)c2)n1 [compound 115, N-{5′-[2-(5-Chloro-2-fluoro-phenyl)-[1,8]naphthyridin-4-yl]-[2,3′]bipyridinyl-6-yl}-acetamide]
< 100 nM | < 100 nM | CN1CCN(c2cccc(-c3cncc(-c4cc(-c5cc(Cl)ccc5F)nc5ncccc45)c3)c2)CC1 [compound 116, 2-(5-Chloro-2-fluoro-phenyl)-4-{5-[3-(4-methyl-piperazin-1-yl)-phenyl]-pyridin-3-yl}-[1,8]naphthyridine]
100 to 1000 nM | 100 to 1000 nM | CN1CCN(c2ccc(-c3cc(-c4cc(-c5cc(Cl)ccc5F)nc5ncccc45)cnn3)cc2)CC1 [compound 117, 2-(5-Chloro-2-fluoro-phenyl)-4-{6-[4-(4-methyl-piperazin-1-yl)-phenyl]-pyridazin-4-yl}-[1,8]naphthyridine]
< 100 nM | 100 to 1000 nM | CN(C)CCNC(=O)c1cccc(-c2cncc(-c3cc(-c4cc(Cl)ccc4F)nc4ncccc34)c2)c1 [compound 118, 3-{5-[2-(5-Chloro-2-fluoro-phenyl)-[1,8]naphthyridin-4-yl]-pyridin-3-yl}-N-(2-dimethylamino-ethyl)-benzamide]
100 to 1000 nM | 100 to 1000 nM | CN1CCN(c2cc(-c3cncc(-c4cc(-c5cc(Cl)ccc5F)nc5ncccc45)c3)ncn2)CC1 [compound 119, 2-(5-Chloro-2-fluoro-phenyl)-4-{5-[6-(4-methyl-piperazin-1-yl)-pyrimidin-4-yl]-pyridin-3-yl}-[1,8]naphthyridine]
< 100 nM | < 100 nM | Fc1ccc(F)c(-c2cc(-c3cncc(-c4ccc(OC5CCNCC5)cc4)c3)c3cccnc3n2)c1 [compound 120, 2-(2,5-DifIuoro-phenyl)-4-{5-[4-(piperidin-4-yloxy)-phenyl]-pyridin-3-yl}-[1,8]naphthyridine]
< 100 nM | 100 to 1000 nM | CN1CCN(c2ccc(-c3cncc(-c4cc(-c5cc(F)ccc5F)nc5ncccc45)c3)cn2)CC1 [compound 121, 2-(2,5-Difluoro-phenyl)-4-[6′-(4-methyl-piperazin-1-yl)-[3,3′]bipyridinyl-5-yl]-[1,8]naphthyridine]
100 to 1000 nM | 100 to 1000 nM | CC(=O)Nc1ccc(-c2cncc(-c3cc(-c4cc(Cl)ccc4F)nc4ncccc34)c2)nn1 [compound 122, N-(6-{5-[2-(5-Chloro-2-fluoro-phenyl)-[1,8]naphthyridin-4-yl]-pyridin-3-yl}-pyridazin-3-yl)-acetamide]
< 100 nM | < 100 nM | CCN1CCC(c2ccc(-c3cncc(-c4cc(-c5cc(F)ccc5F)nc5ncccc45)c3)cc2)CC1 [compound 123, 2-(2,5-Difluoro-phenyl)-4-{5-[4-(1-ethyl-piperidin-4-yl)-phenyl]-pyridin-3-yl}-[1,8]naphthyridine]
1000 to 10000 nM | 100 to 1000 nM | CCOC(=O)c1cccc(-c2cncc(-c3cc(-c4cc(Cl)ccc4F)nc4ncccc34)c2)n1 [compound 124, 5′-[2-(5-Chloro-2-fluoro-phenyl)-[1,8]naphthyridin-4-yl]-[2,3′]bipyridinyl-6-carboxylic acid ethyl ester]
1000 to 10000 nM | 1000 to 10000 nM | Fc1ccccc1-c1cc(-c2cncc(-c3cccnc3)c2)c2cccnc2n1 [compound 125, 4-[3,3′]Bipyridinyl-5-yl-2-(2-fluoro-phenyl)-[1,8]naphthyridine]

Reference: patent US8912216B2, “Hetaryl-[1,8]naphthyridine derivatives” (Merck Patent GmbH, priority 2010, dated 2014)
